{"source": "paper PMC2362691", "about": "“A phase I study of the lipophilic thymidylate synthase inhibitor Thymitaq™ (nolatrexed dihydrochloride) given by 10-day oral administration” (British Journal of Cancer, 1999)", "key": {"thymidylate synthase": {"test_system": "thymidylate synthase", "assay": "Plasma deoxyuridine (dUrd) concentrations, pretreatment vs day 10", "format": "in vivo, cancer patients"}, "[1]": {"conditions": "in vivo"}, "[2]": {"conditions": "rats fasted before treatment, introduction, no reference given, cited from earlier work"}, "[3]": {"conditions": "no reference given, cited from earlier work; for bioavailability of proposed clinical formulation: capsules with microcrystalline cellulose and crospovidone, dosing preceded and followed by water gavage"}, "[4]": {"design": "method as in Rafi et al, 1996", "conditions": "patients, 5-day oral administration; ref Rafi et al, 1996; cited from earlier work"}, "[5]": {"design": "method as in Rafi et al, 1995", "conditions": "continuous 24-h infusion, ref Rafi et al, 1995, cited from earlier work"}, "[6]": {"conditions": "cited from earlier work"}, "[7]": {"conditions": "cited from earlier work", "remark": "listed apart in the source"}, "[8]": {"assay": "Phase I study of 10-day oral nolatrexed (6 hourly, every 21 days): toxicity by CTC grade", "conditions": "6 hourly for 10 days, repeated at 3-weekly intervals (143 mg m-2 every 6 h)"}, "[9]": {"design": "method as in earlier work", "conditions": "clinical trial, ref Calvert et al, 1986, 1987, Bassendine et al, Cantwell et al, 1988; cited from earlier work"}, "[10]": {"design": "method as in Jodrell et al, 1991", "conditions": "ref Jodrell et al, 1991; cited from earlier work"}, "[11]": {"conditions": "10-day intravenous infusion, 716 mg m-2 day-1, ref Creaven et al (1998)"}, "[12]": {"conditions": "5-day intravenous infusion, ref Rafi et al, 1998"}}, "note": "Where “and” joins values, the source holds several entries; their conditions need not be identical. Equal entries are not always repeated. Where two headings read alike, the source gives them in different places.", "data": [{"compound": "Cc1ccc2nc(N)[nH]c(=O)c2c1Sc1ccncc1.Cl.Cl", "note": "[nolatrexed, 2-Amino-3,4-dihydro-6-methyl-4-oxo-5-(4-pyridylthio)-quinazoline dihydrochloride]", "values": [{"measurement": "elevation in plasma dUrd compared with baseline", "setting": "thymidylate synthase; 429 mg m-2 day-1, in three out of four patients with data", "value": "> 75", "unit": "%"}, {"measurement": "rise of plasma dUrd concentration, median", "setting": "thymidylate synthase; day 10 vs pretreatment, 12 out of 23 patients, all dose levels", "value": "90 % of baseline"}, {"measurement": "dose level that could be considered for phase II testing", "setting": "[1]; human, 10 days", "value": 429, "unit": "mg m-2 day-1"}, {"measurement": "doses at which thrombocytopenia (grade 1 or 2) occurred", "setting": "[1]; human, po, 10 days", "value": "≥ 318", "unit": "mg m^−2day^−1"}, {"measurement": "additional patients with increased sensitivity to sunlight, no apparent rash", "setting": "[1]", "value": "five"}, {"measurement": "patients with elevation of serum bilirubin", "setting": "[1]", "value": "nine"}, {"measurement": "patients with skin rash", "setting": "[1]", "value": "eight"}, {"measurement": "patients who achieved disease stabilization", "setting": "human, in vivo", "value": "three"}, {"measurement": "patients with progressive disease on treatment", "setting": "ten out of 23 patients had evaluable disease", "value": "seven"}, {"measurement": "oral bioavailability", "setting": "[2]; 20 mg kg-1 (120 mg m-2)", "value": 53, "unit": "%"}, {"measurement": "oral bioavailability", "setting": "[2]; 40 mg kg-1 (240 mg m-2)", "value": 50, "unit": "%"}, {"measurement": "oral bioavailability", "setting": "[2]; 80 mg kg-1 (480 mg m-2)", "value": 30, "unit": "%"}, {"measurement": "bioavailability of proposed clinical formulation", "setting": "[3]; one dog", "value": "70% and 107%"}, {"measurement": "bioavailability of proposed clinical formulation", "setting": "[3]; second dog", "value": 87, "unit": "%"}, {"measurement": "bioavailability", "setting": "[3]; dogs fasted overnight, in 5% dextrose by gavage, introduction", "value": "> 90", "unit": "%"}, {"measurement": "oral bioavailability", "setting": "[4]", "value": "70–100%"}, {"measurement": "systemic toxicity", "setting": "[5]; maximum dose administered 1073 mg m-2", "value": "no systemic toxicity"}, {"measurement": "local toxicity (phlebitis), CTC grade", "setting": "[5]", "value": 2, "unit": "CTC grade"}, {"measurement": "patients who completed the dose level", "setting": "[6]; [11]", "value": "zero out of three"}, {"measurement": "patients with grade 4 myelosuppression", "setting": "[6]; [11]", "value": "two out of three"}, {"measurement": "patients with dose-limiting myelosupression", "setting": "[6]; in vivo, iv", "value": "one out of four"}, {"measurement": "duration of partial response", "setting": "[7]; 5-day intravenous infusion, one patient with metastatic colorectal cancer, ref Rafi et al, 1998", "value": 3, "unit": "months"}, {"measurement": "dose-limiting toxicity", "setting": "[7]; [12]", "value": "neutropenia"}, {"measurement": "maximum tolerated dose", "setting": "[7]; [12]", "value": 904, "unit": "mg m-2 day-1"}, {"measurement": "recommended phase II dose", "setting": "[7]; [12]", "value": 800, "unit": "mg m-2 day-1"}, {"measurement": "clearance", "setting": "[7]; supported by median trough values of this study, ref Rafi et al (1998)", "value": "dose dependent"}, {"measurement": "maximum tolerated dose", "setting": "[8]", "value": 572, "unit": "mg m-2 day-1"}]}, {"compound": "C#CCN(Cc1ccc2nc(N)[nH]c(=O)c2c1)c1ccc(C(=O)N[C@@H](CCC(=O)O)C(=O)O)cc1", "note": "[CB 3717, N10-propargyl-5,8-dideazafolic acid]", "values": [{"measurement": "toxicity that led to abandoned development", "setting": "[9]", "value": "sporadic and unpredictable nephrotoxicity and myelotoxicity"}]}, {"compound": "Cc1nc2ccc(CN(C)c3ccc(C(=O)N[C@@H](CCC(=O)O)C(=O)O)s3)cc2c(=O)[nH]1", "note": "[raltitrexed]", "values": [{"measurement": "nephrotoxicity", "setting": "[10]", "value": "non-nephrotoxic"}]}]}
